# Several values for one entry are separate records, joined by “and”; a condition that tells them apart may be missing. Identical values can stand only once.
# Key:
# [1] = DNDI: Cytotoxicity against L929 mouse fibroblasts, CYTO-SP, 24 hour; format: toxicity, cell-based; settings: mouse, L929 mouse fibroblasts
# [2] = DNDI: Cytotoxicity against L929 mouse fibroblasts, 72 hour.; format: toxicity, cell-based; settings: mouse, L929 mouse fibroblasts
# [3] = system: Trypanosoma brucei; assay: DNDI: Inhibition of Human African Trypanosomiasis, Cross 22, in vitro; format: functional, organism-based
# [4] = system: Trypanosoma brucei; assay: DNDI: Inhibition of Human African Trypanosomiasis, SBRI 427, in vitro; format: functional, organism-based
# [5] = DNDI: % of compound remaining in mouse S9 microsomes at a concentration of 1uM after 60 mins; format: ADME, subcellular, Liver, S9 fraction
# [6] = DNDI: % of compound remaining in rat S9 microsomes at a concentration of 1uM; format: ADME, subcellular, Liver, S9 fraction
# [7] = mouse, microsomes, 1 µM
# Description: DNDI: in vitro intrinsic clearance in mouse liver microsomes at a concentration of 1uM
# [8] = in vitro; settings: mouse, t (1 / 2)
# Description: DNDI: half life in mouse liver microsomes at a concentration of 1uM
# [9] = system: Trypanosoma brucei; assay: (§1) DNDI: Mean survival time in days (MSD) of mice after intraperitoneal injection of Human African Trypanosomiasis (HAT), EATRO 110, in vivo at 20 mg/kg/day for 4 days.; format: functional, Mus musculus
# [10] = DNDI: Lipophilicity measured in Chromatographic hydrophobicity index (CHI) assay, pH 7.4; format: physicochemical; settings: buffer
# [11] = DNDI: Solubility in phosphate buffered saline at pH7.4 measured by nephelometry at room temperature (NEPH-RT); format: physicochemical; settings: pH 7.4
# [12] = system: Trypanosoma brucei; assay: DNDI: Inhibition of Human African Trypanosomiasis, EATRO 110, in vitro; format: functional, organism-based
# [13] = in vitro; settings: human, t (1 / 2)
# Description: DNDI: half life in human liver microsomes at a concentration of 1uM
# [14] = in vitro; settings: human, CLint in vitro
# Description: DNDI: in vitro intrinsic clearance in human liver microsomes at a concentration of 1uM
# [15] = system: Trypanosoma cruzi; assay: DNDI: Inhibition of Chagas Disease parasite Trypanosoma cruzi (Tulahuen LacZ, Clone C4), in vitro.; format: functional, organism-based
# [16] = DNDI: Cytotoxicity against L-6 rat myoblasts from skeletal muscle cells; format: toxicity, cell-based, L6; settings: L-6 rat skeletal muscle myoblasts
# [17] = system: Trypanosoma brucei rhodesiense; assay: DNDI: Inhibition of Human African Trypanosomiasis (HAT), STIB 900, in vitro; format: functional, organism-based
# [18] = system: Leishmania donovani; assay: DNDI: Inhibition of formation of Leishmania donovani (strain MHOM/ET/67/L82) axenic amastigotes, in vitro.; format: functional, organism-based
# [19] = system: Plasmodium falciparum; assay: DNDI: Inhibition of the malaria parasite Plasmodium falciparum, in vitro; format: functional, organism-based; settings: K1
# [20] = DNDI: half life in human liver microsomes at a concentration of 10uM; format: ADME, Microsome
# [21] = DNDI: in vitro intrinsic clearance in human liver microsomes at a concentration of 10uM; format: ADME, Microsome
# [22] = DNDI: in vitro intrinsic clearance in mouse liver microsomes at a concentration of 10uM; format: ADME, Microsome; settings: read-out: CLint in vitro
# [23] = DNDI: half life in mouse liver microsomes at a concentration of 10uM; format: ADME, Microsome
# [24] = DNDI: Solubility in phosphate buffered saline at pH7.4 measured by optical density (turbidimetry) at room temperature (OD-RT); format: physicochemical; settings: pH 7.4
# [25] = system: Trypanosoma brucei; assay: as §1; format: functional, Mus musculus; remark: listed apart in the source
# [26] = DNDI: half-life in mouse S9 microsomes at a concentration of 1uM; format: ADME, subcellular, Liver, S9 fraction
# [27] = Trypanosoma brucei, SBRI 427, read-out: IC50
Structure (SMILES),"IC50 [4, 27] [µg/mL]",CLint in vitro [7] [µL/min/mg],half-life at 1 µM ([8]; liver microsomes) [min],chromatographic logD [10],solubility kinetic [11] [µM],IC50 at 24 h [1] [µg/mL],IC50 at 72 h [2] [µg/mL],further results
CCCCCOc1ccc(-c2nc(CNC[C@@H]3CC[C@H]4C[C@@H]3C4(C)C)co2)cc1,0.08,74,12,6.45,< 1,> 50,< 3.13,MSD [9]: 4 days
O/N=C(\NC1CCCCC1)c1cc(F)cc(F)c1,> 5,35,25,4.26,> 200,> 50,–,half-life at 1 µM ([13]; liver microsomes): 61 min; microsomal CLint at 1 µM ([14]; liver microsomes): 14 µL/min/mg
CCCCc1ccc(-c2nc(CNC3[C@H]4C[C@@H]5C[C@@H](C[C@H]3C5)C4)co2)cc1 (stereo partly specified),–,–,–,–,–,> 50,–,IC50 [15]: 3.9 µg/mL; IC50 [16]: 8.8 µg/mL; IC50 [3]: 0.44 µg/mL; IC50 [4]: 0.77 ug/ml [middle of 4 runs]; IC50 [17]: 0.727 µg/mL; MSD [9]: 4 days; IC50 [18]: 9.58 µg/mL; IC50 [19]: 0.738 µg/mL
CC(C)Oc1ccc(-c2nc(CNC3CCCCCC3)co2)cc1,2.39,12,68,–,–,–,6.77,MSD [25]: 4 days; MSD [9]: 4 days
CCCCc1ccc(-c2nc(CNC[C@@H]3CC[C@H]4C[C@@H]3C4(C)C)co2)cc1,–,–,–,6.68,3,> 50,> 10,IC50 [15]: 2.61 µg/mL; IC50 [16]: 2.89 µg/mL; IC50 [3]: 0.31 µg/mL; IC50 [17]: 0.361 µg/mL; MSD [25]: 3.5 days; IC50 [18]: 4.84 µg/mL; IC50 [19]: 0.389 µg/mL; half-life at 1 µM ([13]; liver microsomes): 39 min; microsomal CLint at 1 µM ([14]; liver microsomes): 22 µL/min/mg
CCCCc1ccc(-c2nc(CN[C@@H]3C[C@@H]4C[C@H]([C@H]3C)C4(C)C)co2)cc1,–,–,–,6.6,6,> 50,0.79,IC50 [15]: 1.4 µg/mL; IC50 [16]: 3.21 µg/mL; IC50 [3]: 0.57 µg/mL; IC50 [17]: 0.357 µg/mL; MSD [25]: 3.5 days; IC50 [18]: 4.61 µg/mL; IC50 [19]: 0.497 µg/mL; half-life at 1 µM ([13]; microsomes): 81 min; microsomal CLint at 1 µM ([14]; microsomes): 10 µL/min/mg; half-life at 1 µM ([8]; microsomes): 13 min
CCCCCC(C)NCc1coc(-c2ccccc2Oc2ccccc2)n1 (stereo unspecified),2.98,220,4,–,–,–,6.3,MSD [25]: 4 days; MSD [9]: 5 days
CCCCCOc1ccc(-c2nc(CN[C@@H]3C[C@@H]4C[C@H]([C@H]3C)C4(C)C)co2)cc1,0.12,60,14,6.5,2,38.9,< 3.13,MSD [9]: 4.5 days
CCCCc1ccc(-c2nc(CNCc3c(OC)cccc3OC)co2)cc1,0.32,65,13,> 5.2,6,–,1.62,"MSD [25]: 4.5 days; remaining at 1 h, 1 µM [5]: 18.7%; remaining at 1 µM [6]: 0.169%"
c1ccc2c(Oc3nc(NCCN4CCCC4)nc4ccsc34)cccc2c1,1.06,–,–,–,–,–,> 10,half-life at 1 µM [26]: 3.5 min
CC1CC(NCc2coc(-c3ccc(OC(C)C)cc3)n2)CC(C)(C)C1 (stereo unspecified),0.79,26,33,–,–,–,1.51,MSD [25]: 4 days; MSD [9]: 3.5 days
CCCCCC(C)NCc1coc(-c2ccc(OC(CC)CC)cc2)n1 (stereo unspecified),0.36,2,476,–,1,–,0.85,MSD [25]: 4 days; MSD [9]: 4 days

# Second part, led by results:
"IC50 [4, 27] [µg/mL]",CLint in vitro [7] [µL/min/mg],half-life at 1 µM ([8]; liver microsomes) [min],chromatographic logD [10],solubility kinetic [11] [µM],Structure (SMILES),IC50 at 24 h [1] [µg/mL],IC50 at 72 h [2] [µg/mL],further results
0.27,6,154,–,–,CC1CC(NCc2coc(-c3ccc(-c4ccccc4)cc3)n2)CC(C)(C)C1 (stereo unspecified),7.93,< 3.13,"IC50 [3]: 0.25 µg/mL; IC50 [4]: 0.24 µg/mL and 0.16 µg/mL; remaining at 1 h, 1 µM [5]: 112%; remaining at 1 µM [6]: 105%"
1.13,–,–,–,–,O/N=C(\NC1CCCCC1)c1cccnc1Oc1ccccc1Br,> 50,–,IC50 [12]: 1.56 µg/mL
> 5,8,–,3.67,50,O/N=C(\NC1CCCCC1)c1c(F)cccc1F,> 50,–,half-life at 1 µM ([13]; microsomes): > 350 min; microsomal CLint at 1 µM ([14]; microsomes): < 5 µL/min/mg; half-life at 1 µM ([8]; microsomes): 104 min
0.52,40,21,3.6,–,COc1ccccc1/C(=N/O)NC1CCCCC1,> 50,> 10,"IC50 [15]: > 30 µg/mL; IC50 [16]: 62.3 µg/mL; IC50 [17]: 7.46 µg/mL; IC50 [18]: 17 µg/mL; IC50 [19]: 3.7 µg/mL; half-life at 10 µM [20]: 128 min; CLint in vitro [21]: 23 µL/min/mg; microsomal CLint at 10 µM [22]: 91 µL/min/mg; half-life at 10 µM [23]: 32 min; remaining at 1 h, 1 µM [5]: 1.05%; remaining at 1 µM [6]: 0%; solubility kinetic [24]: > 200 µM"
3.96,168,5,4.43,50,O/N=C(/NC1CCCCC1)c1cccc2ccccc12,> 50,–,half-life at 1 µM ([13]; liver microsomes): 69 min; microsomal CLint at 1 µM ([14]; liver microsomes): 12 µL/min/mg
0.62,–,–,–,–,CSc1ccccc1Oc1ncccc1/C(=N\O)NC1CCCCC1,> 50,–,IC50 [12]: 1.34 µg/mL
0.58,–,–,3.99,–,O/N=C(/NC1CCCCC1)c1cccnc1Oc1ccccc1F,> 50,> 10,IC50 [15]: > 30 µg/mL; IC50 [16]: 54.3 µg/mL; IC50 [12]: 1.5 µg/mL; IC50 [17]: 20.8 µg/mL; IC50 [18]: 19.9 µg/mL; IC50 [19]: > 5 µg/mL; half-life at 10 µM [20]: 185 min; CLint in vitro [21]: 16 µL/min/mg; microsomal CLint at 10 µM [22]: 275 µL/min/mg; half-life at 10 µM [23]: 10 min; solubility kinetic [24]: 50 µM
> 5,19,44,1.64,50,COC/C(=N/O)c1ccc(OC)cc1,> 50,–,half-life at 1 µM ([13]; liver microsomes): 315 min; microsomal CLint at 1 µM ([14]; liver microsomes): 3 µL/min/mg
0.16,244.61,3.48,4.32,25,Cc1ccc(Oc2ncccc2/C(=N/O)NC2CCCCC2)cc1,–,> 10,remaining at 1 µM [6]: 0%
1.21,102,8,–,–,CCOc1ccc(-c2nc(CNC3[C@H]4C[C@@H]5C[C@@H](C[C@H]3C5)C4)co2)cc1 (stereo partly specified),43.2,6.6,IC50 [3]: 2.15 µg/mL; IC50 [12]: 0.86 µg/mL; IC50 [4]: 1.46 µg/mL and 2 µg/mL
0.33,13,68,–,–,CCCCCOc1ccc(-c2nc(CNC(C)CCCCC)co2)cc1 (stereo unspecified),32.4,< 3.13,"remaining at 1 h, 1 µM [5]: 49.7%; remaining at 1 µM [6]: 0.555%"
0.42,28,31,4.67,6,CCCCCC(C)NCc1coc(-c2ccc(Oc3ccccc3)cc2)n1 (stereo unspecified),–,1.6,"remaining at 1 h, 1 µM [5]: 59.9%; remaining at 1 µM [6]: 0%"
0.79,–,–,4.31,–,CCc1ccccc1Oc1ncccc1/C(=N\O)NC1CCCCC1,> 50,–,IC50 [12]: 2.15 µg/mL; half-life at 10 µM [20]: 106 min; CLint in vitro [21]: 27 µL/min/mg; microsomal CLint at 10 µM [22]: 140 µL/min/mg; half-life at 10 µM [23]: 21 min; solubility kinetic [24]: 6.3 µM
> 5,55,15,2.78,25,O/N=C(\CNC1CCCCC1)c1ccccc1,> 50,–,half-life at 1 µM ([13]; liver microsomes): 166 min; microsomal CLint at 1 µM ([14]; liver microsomes): 5 µL/min/mg
